In PubChem BioAssay (NCI):
Values joined by “and” are separate entries in the source; they are usually repeats but may differ in a detail not shown here. Identical values can stand only once.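 Exposure lasted 48 hours, with cells grown in 96-well plates and compounds tested at five concentrations. Abbreviation: GI50, concentration required for 50% inhibition of growth. At the TGI there is no net growth.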

Experiments:
Assay in all cases: NCI anticancer screen, dose series, 48 h
MDA-MB-231 breast = tested on: MDA-MB-231 breast
DU-145 prostate = tested on: DU-145 prostate
SW-620 colon = tested on: SW-620 colon
SF-268 CNS = tested on: SF-268 CNS
NCI/ADR-RES ovarian = tested on: NCI/ADR-RES ovarian
K-562 leukemia = tested on: K-562 leukemia
TK-10 renal = tested on: TK-10 renal
OVCAR-5 ovarian = tested on: OVCAR-5 ovarian
LOX IMVI melanoma = tested on: LOX IMVI melanoma
SNB-75 CNS = tested on: SNB-75 CNS

Row | SMILES | GI50 (MDA-MB-231 breast) [µM] | TGI (MDA-MB-231 breast) [µM] | GI50 (DU-145 prostate) [µM] | TGI (DU-145 prostate) [µM] | GI50 (SW-620 colon) [µM] | TGI (SW-620 colon) [µM] | GI50 (SF-268 CNS) [µM] | TGI (SF-268 CNS) [µM] | GI50 (NCI/ADR-RES ovarian) [µM] | TGI (NCI/ADR-RES ovarian) | GI50 (K-562 leukemia) [µM] | TGI (K-562 leukemia) [µM] | GI50 (TK-10 renal) [µM] | TGI (TK-10 renal) [µM] | GI50 (OVCAR-5 ovarian) [µM] | TGI (OVCAR-5 ovarian) [µM] | GI50 (LOX IMVI melanoma) [µM] | TGI (LOX IMVI melanoma) [µM] | TGI (SNB-75 CNS) | GI50 (SNB-75 CNS) [µM]
1 | O=C(CSC(c1ccccc1)c1ccccc1)N/N=C/c1cccc(Cl)c1 | 14.4 | 28.6 | 16.4 | 30 | 15 | 29.2 | 17.5 | 35 | 14.3 | 31.8 µM | 21.6 | 41.9 | 19.2 | 34.9 | 17.5 | 33.8 | 17.9 | 33.3 | – | –
2 | CN(C)CCNC(=O)Cn1cc([N+](=O)[O-])c(=O)c2ccccc21 | – | > 100 | – | > 100 | – | > 100 | – | > 100 | – | > 100 µM | – | > 100 | – | > 100 | – | > 100 | – | – | > 100 µM | –
3 | Cc1cc(=O)[nH]o1 | – | > 100 | – | – | – | > 100 | – | > 100 | – | > 100 µM | – | > 100 | – | > 100 | – | > 100 | – | > 100 | > 100 µM | –
4 | O=C(Nc1ccc(Oc2ccc3nc(NC(=O)c4ccccc4)[nH]c3c2)cc1)Nc1cc(C(F)(F)F)ccc1F | 2.05 | > 22.9 | 1.32 | 16.6 | 1.27 | > 25 | 2.03 | 24.4 | 0.771 | 3.38 µM | 0.262 | > 7.59 | 2.61 | 22 | 4.41 | > 25 | 0.97 | > 10.8 | 10 µM | 1.3
5 | Cc1cnc(/C=N\NC(N)=S)c2cccc(N)c12 | 3.2 | > 100 | 1.68 | > 100 | 3.78 | > 100 | 1.51 | > 100 | 3.53 | > 100 µM and 17.8 µM | 2.82 | > 100 | 6.89 | > 100 | > 21.3 | > 100 | 2.32 | > 100 | > 27 µM and 9.48 µM | 1.35
6 | CCCC[N+](CCCC)=c1ccc2nc3c(C)cc(N(CC)CC)cc3sc-2c1 | 0.247 | 0.849 | 0.307 | 1.47 | 0.245 | 1.58 | 0.339 | 1.78 | 0.327 | 1.84 µM | – | – | 0.102 | 1.58 | 0.349 | 1.61 | 0.146 | 1.13 | 1.1 µM | 0.229
7 | C=CC(C)(O)/C=C/C=C(\C)C(CC1OC1(C)C)OC(=O)/C(C)=C\C (stereo unspecified) | – | > 100 | – | > 100 | – | > 100 | – | > 100 | – | > 100 µM | – | > 100 | – | > 100 | – | > 100 | – | > 100 | > 100 µM | –
8 | O=c1c2ccccc2n2n1CC(O)C2 (stereo unspecified) | > 100 | > 100 | > 100 | > 100 | – | > 100 | – | > 100 | > 100 | > 100 µM | – | > 100 | – | > 100 | – | > 100 | – | > 100 | > 100 µM | –
9 | C/C(=N\N=C(\[Se])N1CCN(c2ccccn2)CC1)c1ccccn1 | – | 17.5 | 0.586 | 20.1 | – | 12.4 | – | 19.5 | – | 18.6 µM | 0.00114 | – | – | 20.6 | 0.00643 | 21.8 | 0.00443 | 17.6 | 17.5 µM | –
10 | CCN1C(=O)NC(=O)C(C)(N2C(=O)c3c(F)c(F)c(F)c(F)c3C2=O)C1=O (stereo unspecified) | 2.66 | 9.13 | 3.13 | 11.6 | 1.82 | 3.85 | 2.6 | 7.43 | 3.6 | 18.2 µM | 1.66 | 3.71 | 3.72 | 18.6 | 3.82 | 14.8 | 1.87 | 4 | 11.1 µM | 2.96
11 | COc1ccc(C2=NN(C(=O)c3cc(OC)c(OC)c(OC)c3)C(c3ccc(Cl)cc3)C2)cc1OC (stereo unspecified) | 2.27 | > 68.3 | 3.62 | > 58.9 | 1.6 | > 100 | 2.66 | 23.6 | 1.05 | – | 0.777 | > 100 | 3.63 | > 81.6 | 76.5 | > 100 | 3.63 | > 100 | 15.2 µM | 0.746
12 | O=S(=O)(O)c1ccc(-c2nnc(-c3ccccn3)nc2-c2ccc(S(=O)(=O)O)o2)o1 | – | > 100 | – | > 100 | – | > 100 | – | > 100 | – | > 100 µM | – | > 100 | – | – | – | > 100 | – | > 100 | > 100 µM | –
13 | C=CC(C=O)C1(O)CCOC(=O)/C1=C\N (stereo unspecified) | > 100 | > 100 | > 100 | > 100 | > 100 | > 100 | > 100 | > 100 | > 100 | > 100 µM | > 100 | > 100 | > 100 | > 100 | > 100 | > 100 | > 100 | > 100 | – | –
14 | CC(C)(C#N)c1cc(F)cc(C(=O)Nc2cc(Nc3ncccc3-c3ncnc4nc[nH]c34)ccc2F)c1 | 0.306 | 4.8 | 5.51 | > 10 | 1.13 | > 10 | 3.78 | > 10 | 4.58 | > 10 µM | 0.606 | > 10 | > 10 | > 10 | 0.451 | > 10 | 0.104 | 1.8 | > 10 µM | 3.31
15 | Cn1c(O)c(C(/C=C/c2ccccc2)=NCCN=C(/C=C/c2ccccc2)c2c(O)n(C)c(=O)n(C)c2=O)c(=O)n(C)c1=O | 20.9 | > 50 | 13.3 | > 50 | 15.5 | 34.2 | 15.1 | > 50 | 15.3 | > 50 µM | 14.6 | > 50 | 23.7 | > 50 | 16.8 | > 50 | 17.1 | > 50 | > 50 µM | 17.6
